pIC50: −log10 of the molar value.
Legend:
BTK C481S protein = BTK C481S protein (Homo sapiens (Human), UniProt Q06187, C481S); experiment: BTK C481S HTRF displacement assay; type: binding; details: 1-hour incubation
Method in brief: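 N-terminal GST-tagged BTK C481S (2-659) incubated 1 hour at room temperature with compound (6 doses, four-fold from 5 μM), 50 nM kinase tracer 239 and anti-GST-Tb antibody. TR-FRET 665/620 ratio, background-subtracted; IC50 from constrained four-parameter fit. KI=IC50/(1+[Tracer]/Kd), tracer Kd 54 nM.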

BTK wildtype protein = BTK wildtype protein (Homo sapiens (Human), UniProt Q06187); experiment: BTK wildtype HTRF displacement assay; type: binding; details: 1-hour incubation; read-out: BTK (wt) IC50
BTK wildtype protein, sequence (Q06187 2-659): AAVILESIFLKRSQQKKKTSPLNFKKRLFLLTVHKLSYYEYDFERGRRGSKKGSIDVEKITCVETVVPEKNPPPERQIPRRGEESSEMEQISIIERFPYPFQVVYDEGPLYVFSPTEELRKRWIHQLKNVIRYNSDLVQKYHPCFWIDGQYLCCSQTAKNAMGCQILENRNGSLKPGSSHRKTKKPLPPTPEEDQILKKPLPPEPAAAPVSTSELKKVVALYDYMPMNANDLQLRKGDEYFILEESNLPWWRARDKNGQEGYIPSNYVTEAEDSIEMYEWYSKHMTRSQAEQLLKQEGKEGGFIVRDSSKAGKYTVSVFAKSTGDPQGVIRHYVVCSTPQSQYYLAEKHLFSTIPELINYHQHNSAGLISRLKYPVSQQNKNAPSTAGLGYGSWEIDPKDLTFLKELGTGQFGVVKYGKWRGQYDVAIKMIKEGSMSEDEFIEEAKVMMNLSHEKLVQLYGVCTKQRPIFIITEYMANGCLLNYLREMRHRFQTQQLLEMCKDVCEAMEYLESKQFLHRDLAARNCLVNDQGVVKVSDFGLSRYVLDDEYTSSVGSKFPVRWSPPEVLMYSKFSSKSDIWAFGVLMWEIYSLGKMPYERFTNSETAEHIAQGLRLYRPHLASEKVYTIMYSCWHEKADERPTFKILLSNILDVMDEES
Method in brief: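 Full-length N-terminal GST-tagged BTK incubated 1 h at room temperature with compound (6 doses, four-fold dilutions from 5 μM top) plus kinase tracer 239 and anti-GST-Tb antibody. Tracer displacement read as TR-FRET 665/620 ratio, background-subtracted using no-protein control. IC50 from four-parameter fit constrained 0–100% inhibition.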

BTK C481S protein, sequence (Q06187 2-659 C481S): as the sequence (Q06187 2-659) above, with C480S counted along it

pIC50 (BTK C481S protein) | pIC50 (BTK wildtype protein) | SMILES
≥ 6.00 | ≥ 6.00 | COc1ccc(F)cc1C(=O)NCc1ccc(-c2nn(CC3CCN3C(=O)n3cncn3)c(N)c2C(N)=O)cc1 (stereo not shown) [Compound 145, 1-((1-(1H-1,2,4-triazole-1-carbonyl)azetidin-2-yl)methyl)-5-amino-3-(4-((5-fluoro-2-methoxybenzamido)methyl)phenyl)-1H-pyrazole-4-carboxamide]
< 6.00 | < 6.00 | COc1ccc(F)cc1C(=O)NCc1ccc(-c2nn(C[C@@H]3C[C@@H](O)CN3C(=O)n3cncn3)c3ncnc(N)c23)cc1 [Compound 224, N-(4-(4-amino-1-(((2S,4R)-4-hydroxy-1-(1H-1,2,4-triazole-1-carbonyl)pyrrolidin-2-yl)methyl)-1H-pyrazolo[3,4-d]pyrimidin-3-yl)benzyl)-5-fluoro-2-methoxybenzamide]
< 6.00 | < 6.00 | COc1ccc(F)cc1C(=O)NCc1ccc(-c2nn(CC3C(C)CCCN3C(=O)n3cncn3)c3ncnc(N)c23)cc1 (stereo not shown) [Compound 271, N-(4-(4-amino-1-((3-methyl-1-(1H-1,2,4-triazole-1-carbonyl)piperidin-2-yl)methyl)-1H-pyrazolo[3,4-d]pyrimidin-3-yl)benzyl)-5-fluoro-2-methoxybenzamide]
< 6.00 | < 6.00 | COc1ccc(F)cc1C(=O)NCc1ccc(-c2nn(C(CC(F)F)CN(C)C(=O)n3cncn3)c3ncnc(N)c23)cc1 (stereo not shown) [Compound 257, N-(2-(4-amino-3-(4-((5-fluoro-2-methoxybenzamido)methyl)phenyl)-1H-pyrazolo[3,4-d]pyrimidin-1-yl)-4,4-difluorobutyl)-N-methyl-1H-1,2,4-triazole-1-carboxamide]
< 6.00 | < 6.00 | COc1ccc(F)cc1C(=O)NCc1ccc(-c2nn(CC3COCCN3C(=O)n3cncn3)c3ncnc(N)c23)cc1 (stereo not shown) [Compound 210, N-(4-(1-((4-(1H-1,2,4-triazole-1-carbonyl)morpholin-3-yl)methyl)-4-amino-1H-pyrazolo[3,4-d]pyrimidin-3-yl)benzyl)-5-fluoro-2-methoxybenzamide]
≥ 6.00 | ≥ 6.00 | COc1ccc(C)cc1C(=O)NCc1ccc(-c2nn(C3CCCC(N(C)C(=O)n4cncn4)C3)c3ncnc(N)c23)cc1 (stereo not shown) [Compound 215, N-(3-(4-amino-3-(4-((2-methoxy-5-methylbenzamido)methyl)phenyl)-1H-pyrazolo[3,4-d]pyrimidin-1-yl)cyclohexyl)-N-methyl-1H-1,2,4-triazole-1-carboxamide]
≥ 6.00 | < 6.00 | COc1ccc(F)cc1C(=O)NCc1ccc(-c2nn(C(C)CN(C(=O)n3cncn3)C3CC3)c3ncnc(N)c23)cc1 (stereo not shown) [Compound 230, N-(2-(4-amino-3-(4-((5-fluoro-2-methoxybenzamido)methyl)phenyl)-1H-pyrazolo[3,4-d]pyrimidin-1-yl)propyl)-N-cyclopropyl-1H-1,2,4-triazole-1-carboxamide]
≥ 6.00 | ≥ 6.00 | CC[C@@H](Cn1nc(-c2ccc(CNC(=O)c3cc(F)ccc3OC)cc2)c2c(N)ncnc21)N(C)C(=O)n1cncn1 [Compound 204, (S)-N-(1-(4-amino-3-(4-((5-fluoro-2-methoxybenzamido)methyl)phenyl)-1H-pyrazolo[3,4-d]pyrimidin-1-yl)butan-2-yl)-N-methyl-1H-1,2,4-triazole-1-carboxamide]
≥ 6.00 | ≥ 6.00 | COc1ccc(F)cc1C(=O)NCc1ccc(-c2nn(CCCN(C(=O)n3cncn3)C3CC3)c3ncnc(N)c23)cc1 [Compound 287, N-(3-(4-amino-3-(4-((5-fluoro-2-methoxybenzamido)methyl)phenyl)-1H-pyrazolo[3,4-d]pyrimidin-1-yl)propyl)-N-cyclopropyl-1H-1,2,4-triazole-1-carboxamide]
< 6.00 | < 6.00 | COc1ccc(F)cc1C(=O)NCc1ccc(-c2nn(CC3CC(C)CCN3C(=O)n3cncn3)c3ncnc(N)c23)cc1 (stereo not shown) [Compound 112, N-(4-(4-amino-1-((4-methyl-1-(1H-1,2,4-triazole-1-carbonyl)piperidin-2-yl)methyl)-1H-pyrazolo[3,4-d]pyrimidin-3-yl)benzyl)-5-fluoro-2-methoxybenzamide]
≥ 6.00 | ≥ 6.00 | NC(=O)c1c(-c2ccc(Oc3ccccc3)cc2)nn2c1NCC1CN(C(=O)n3cncn3)CCC12 (stereo not shown) [Compound 306, 2-(4-phenoxyphenyl)-7-(1H-1,2,4-triazole-1-carbonyl)-4,5,5a,6,7,8,9,9a-octahydropyrazolo[1,5-a]pyrido[3,4-e]pyrimidine-3-carboxamide]
≥ 6.00 | ≥ 6.00 | Cc1[nH]c2c(C(N)=O)cc(F)c(N3CCC4(CCN4C(=O)n4cncn4)C3)c2c1C (stereo not shown) [Compound 105, 4-(1-(1H-1,2,4-triazole-1-carbonyl)-1,6-diazaspiro[3.4]octan-6-yl)-5-fluoro-2,3-dimethyl-1H-indole-7-carboxamide]
≥ 6.00 | ≥ 6.00 | COc1ccc(F)cc1C(=O)NCc1ccc(-c2nn(C[C@H]3CCCC[C@H]3CN(C)C(=O)n3cncn3)c3ncnc(N)c23)cc1 [Compound 173, N-(((1R,2S)-2-((4-amino-3-(4-((5-fluoro-2-methoxybenzamido)methyl)phenyl)-1H-pyrazolo[3,4-d]pyrimidin-1-yl)methyl)cyclohexyl)methyl)-N-methyl-1H-1,2,4-triazole-1-carboxamide]
< 6.00 | < 6.00 | CN(C(=O)n1cncn1)C1CCC2CNc3c(C(N)=O)c(-c4ccc(Oc5ccccc5)cc4)nn3C2C1 (stereo not shown) [Compound 234, 8-(N-methyl-1H-1,2,4-triazole-1-carboxamido)-2-(4-phenoxyphenyl)-4,5,5a,6,7,8,9,9a-octahydro-pyrazolo[1,5-a]quinazoline-3-carboxamide]
≥ 6.00 | ≥ 6.00 | COc1ccc(F)cc1C(=O)NCc1ccc(-c2nn([C@@H]3CCC[C@@H](N(C)C(=O)n4cncn4)C3)c(N)c2C(N)=O)cc1 (relative stereo) [Compound 194, N-((1R,3R)-3-(5-amino-4-carbamoyl-3-(4-((5-fluoro-2-methoxybenzamido)methyl)phenyl)-1H-pyrazol-1-yl)cyclohexyl)-N-methyl-1H-1,2,4-triazole-1-carboxamide]
≥ 6.00 | ≥ 6.00 | CC1CC(n2nc(-c3ccc(Oc4ccccc4)cc3)c3c(N)ncnc32)CC(C)N1C(=O)n1cncn1 (stereo not shown) [Compound 101, (4-(4-amino-3-(4-phenoxyphenyl)-1H-pyrazolo[3,4-d]pyrimidin-1-yl)-2,6-dimethylpiperidin-1-yl)(1H-1,2,4-triazol-1-yl)methanone]
≥ 6.00 | ≥ 6.00 | COc1ccc(F)cc1C(=O)NCc1ccc(-c2nn(CC(N(C)C(=O)n3cncn3)C(F)(F)F)c(N)c2C(N)=O)cc1 (stereo not shown) [Compound 186, N-(3-(5-amino-4-carbamoyl-3-(4-((5-fluoro-2-methoxybenzamido)methyl)phenyl)-1H-pyrazol-1-yl)-1,1,1-trifluoropropan-2-yl)-N-methyl-1H-1,2,4-triazole-1-carboxamide]
< 6.00 | < 6.00 | COc1ccc(F)cc1C(=O)NCc1ccc(-c2nn(C(CC3CC3)CN(C)C(=O)n3cncn3)c3ncnc(N)c23)cc1 (stereo not shown) [Compound 127, N-(4-(4-amino-3-(4-((5-fluoro-2-methoxybenzamido)methyl)phenyl)-1H-pyrazolo[3,4-d]pyrimidin-1-yl)-3-cyclopropylpropyl)-N-methyl-1H-1,2,4-triazole-1-carboxamide]
< 6.00 | < 6.00 | CC1CN(Cc2ccc(C(F)(F)F)cc2N2CCCC2)CCN1C(=O)n1cncn1 (stereo not shown) [Compound 106, (2-methyl-4-(2-(pyrrolidin-1-yl)-4-(trifluoromethyl)benzyl)piperazin-1-yl)(1H-1,2,4-triazol-1-yl)methanone]
< 6.00 | < 6.00 | COC[C@@H](C1CCNc2c(C(N)=O)c(-c3ccc(Oc4ccccc4)cc3)nn21)N(C)C(=O)n1cncn1 (stereo partly drawn) [Compound 285, 7-((R)-2-methoxy-1-(N-methyl-1H-1,2,4-triazole-1-carboxamido)ethyl)-2-(4-phenoxyphenyl)-4,5,6,7-tetrahydropyrazolo [1,5-a]pyrimidine-3-carboxamide]
< 6.00 | ≥ 6.00 | COc1ccc(F)cc1C(=O)NCc1ccc(-c2nn(Cc3ccccc3N(C)C(=O)n3cncn3)c3ncnc(N)c23)cc1 [Compound 141, N-(2-((4-amino-3-(4-((5-fluoro-2-methoxybenzamido)methyl)phenyl)-1H-pyrazolo[3,4-d]pyrimidin-1-yl)methyl)phenyl)-N-methyl-1H-1,2,4-triazole-1-carboxamide]
≥ 6.00 | ≥ 6.00 | COc1ccc(F)cc1C(=O)NCc1ccc(-c2nn(C[C@@H]3CCN3C(=O)n3cncn3)c3ncnc(N)c23)cc1 [Compound 103, (S)-N-(4-(1-((1-(1H-1,2,4-triazole-1-carbonyl)azetidin-2-yl)methyl)-4-amino-1H-pyrazolo[3,4-d]pyrimidin-3-yl)benzyl)-5-fluoro-2-methoxybenzamide]
≥ 6.00 | ≥ 6.00 | COc1ccc(F)cc1C(=O)NCc1ccc(-c2nn(C[C@@H]3C[C@H](O)CN3C(=O)n3cncn3)c3ncnc(N)c23)cc1 [Compound 241, N-(4-(4-amino-1-(((2S,4S)-4-hydroxy-1-(1H-1,2,4-triazole-1-carbonyl)pyrrolidin-2-yl)methyl)-1H-pyrazolo[3,4-d]pyrimidin-3-yl)benzyl)-5-fluoro-2-methoxybenzamide]

From US20240294531A1, “COVALENT HETEROCYCLES AND USES THEREOF” (Kumquat Biosciences Inc., priority 2022, published 2024)
